Results on seven compounds are retold here after ChEMBL document CHEMBL1126761, “A novel constrained reduced-amide inhibitor of HIV-1 protease derived from the sequential incorporation of gamma-turn mimetics into a model substrate” (J Med Chem, 1993).

What is called Ki is the dissociation constant of the complex between target and ligand, obtained from inhibition or displacement. Read a low Ki as a stronger hold on the target.

Molecules are shown by their SMILES. *1 amine or outer side, *2 acyl side, *3 side chain or, on linkers, in order; H or OH if unused. Where a SMILES comes first, the peptide text is derived from it. [ ]: non-standard residue; d: D form. X1 = CC(N[*:1])C1=CCC(=O)N([C@@H](Cc2ccccc2)C(=O)[*:2])CC1; X2 = O=C([C@@H]1CCCN1C[C@H](Cc1ccccc1)N[*:1])[*:2] Where only a bound is given, the exact number is not on record here.

In this experiment the target is Human immunodeficiency virus type 1 protease (Human immunodeficiency virus 1, UniProt Q72874). In words: Inhibition constant was determined against HIV-1 protease.
As for `CC(C)[C@H](NC(=O)[C@@H](NC(=O)[C@@H]1CCCN1C[C@H](Cc1ccccc1)NC(=O)[C@H](C)NC(=O)[C@H](C)NC(=O)[C@@H](N)CO)C(C)C)C(N)=O` (H-SAA[X2]VV-NH2), the Ki came to 18.8 µM. Next, `CC(NC(=O)[C@@H](N)CO)C1=CCC(=O)N([C@@H](Cc2ccccc2)C(=O)N2CCC[C@H]2C(=O)N[C@H](C(=O)N[C@H](C(N)=O)C(C)C)C(C)C)CC1` (some centres not stated) (H-S[X1]PVV-NH2): more than 2000 µM; `COC(=O)[C@@H](NC(=O)[C@@H](NC(=O)[C@H](C)N1CCC([C@H](C)NC(=O)[C@H](C)N)=CC(Cc2ccccc2)C1)C(C)C)C(C)C` (stereo in doubt; form 1): 0.43 µM.

With `COC(=O)[C@@H](NC(=O)[C@@H](NC(=O)[C@H](C)N1CCC([C@H](C)NC(=O)[C@H](C)N)=CC(Cc2ccccc2)C1=O)C(C)C)C(C)C` (stereo in doubt; form 1), the affinity, expressed as Ki, was 372 µM. As for `COC(=O)[C@@H](NC(=O)[C@H](C(C)C)N1CCC(C(Cc2ccccc2)NC(=O)[C@H](C)NC(=O)[C@H](C)NC(=O)[C@@H](N)CO)=CCC1=O)C(C)C` (stereo in doubt; form 1), the figure is more than 2000 µM; as for `COC(=O)[C@@H](NC(=O)[C@@H](NC(=O)[C@H](C)N1CCC([C@H](C)NC(=O)[C@H](C)N)=CC(Cc2ccccc2)C1=O)C(C)C)C(C)C` (stereo in doubt; form 2), 147 µM. As for `COC(=O)[C@@H](NC(=O)[C@H](C(C)C)N1CCC(C(Cc2ccccc2)NC(=O)[C@H](C)NC(=O)[C@H](C)NC(=O)[C@@H](N)CO)=CCC1=O)C(C)C` (stereo in doubt; form 2), the figure is 1700 µM.
